Data reported in patent US9635859B2, “Pesticidal compositions and processes related thereto” (Dow AgroSciences LLC, priority 2012, dated 2017).

Tested on: Beet Armyworm (Spodoptera exigua)
Experiment: Bioassays on BAW, 128-well diet tray assay
Type: in vivo
Settings: percent mortality, second instar larvae, 50 μg/cm^2 on artificial diet, five to seven days, 25° C.; Table 3
Outline: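 Second-instar larvae (one to five per well) were placed on artificial diet surface-treated with 50 μg/cm^2 compound in acetone-water and held at 25 °C, 14:10 light-dark, for five to seven days. Percent mortality was averaged over eight wells.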

Structure (SMILES) | BAW Rating
FC(F)(F)C(/C=C/c1ccc(CNc2ccccn2)c(Cl)c1)c1cc(Cl)c(Cl)c(Cl)c1 (centres unmarked) [CC43, (E)-N-(2-Chloro-4-(4,4,4-trifluoro-3-(3,4,5-trichlorophenyl)but-1-en-1-yl)benzyl)pyridin-2-amine] | A (50-100)
Cc1cc(/C=C/C(c2ccc(Cl)c(Cl)c2)C(F)(F)F)ccc1C(=O)NCc1ccc(Cl)nc1 (centres unmarked) [AC37] | A (50-100)
Cc1cc(/C=C/C(c2cc(Cl)cc(Cl)c2)C(F)(F)F)ccc1C(=O)NCc1ccccc1 (centres unmarked) [AC11] | A (50-100)
O=C(NCc1ccc(/C=C/C(c2cc(Cl)cc(Cl)c2)C(F)(F)F)cc1)C1CC1 (centres unmarked) [CC2] | A (50-100)
Cc1cc(C)cc(C(/C=C/c2ccc(-n3cncn3)cc2)C(F)(F)F)c1 (centres unmarked) [DC11] | A (50-100)
Cc1cc(/C=C/C(c2cc(Cl)cc(Cl)c2)C(F)(F)F)ccc1C(=O)NCC(=O)NC1CS(=O)(=O)C1 (centres unmarked) [AC81] | A (50-100)
O=C(NC1CS(=O)(=O)C1)c1ccc(/C=C/C(c2cc(Cl)c(F)c(Cl)c2)C(F)(F)F)cc1F (centres unmarked) [AC84] | A (50-100)
FC(F)(F)C(/C=C/c1ccc(CNC(=S)C2CC2)c(Cl)c1)c1cc(Cl)c(Cl)c(Cl)c1 (centres unmarked) [CC20] | A (50-100)
O=C(NC1C[S+]([O-])C1)c1ccc(/C=C/C(c2cc(Cl)c(F)c(Cl)c2)C(F)(F)F)cc1F (centres unmarked) [AC87] | A (50-100)
Cc1cc(/C=C/C(c2cc(Cl)c(Cl)c(Cl)c2)C(F)(F)F)ccc1C(=O)NC1CSC1 (centres unmarked) [AC23] | A (50-100)
Cc1cc(/C=C/C(c2cc(Cl)cc(Cl)c2)C(F)(F)F)ccc1C(=O)NCc1ccccc1F (centres unmarked) [AC9] | A (50-100)
Cc1cc(/C=C/C(c2cc(Cl)cc(Cl)c2)C(F)(F)F)ccc1C(=O)NCC(=O)N(C)CC(F)(F)F (centres unmarked) [AC51] | A (50-100)
CC(=O)Nc1ncn(-c2ccc(/C=C/C(c3cc(Cl)cc(Cl)c3)C(F)(F)F)cc2C#N)n1 (centres unmarked) [DC39] | A (50-100)
O=C(CC(F)(F)F)NCc1ccc(/C=C/C(c2cc(Cl)cc(Cl)c2)C(F)(F)F)cc1 (centres unmarked) [CC3] | A (50-100)
Cc1cc(/C=C/C(c2cc(Cl)cc(Cl)c2)C(F)(F)F)ccc1C(=O)NCc1cnc(Cl)s1 (centres unmarked) [AC15] | A (50-100)
Cc1cc(/C=C/C(c2cc(Cl)cc(Cl)c2)C(F)(F)F)ccc1C(=O)NNc1ccccc1F (centres unmarked) [AC17] | A (50-100)
N#Cc1cc(/C=C/C(c2cc(Cl)c(Cl)c(Cl)c2)C(F)(F)F)ccc1-n1cnc(N(C(=O)C2CC2)C(=O)C2CC2)n1 (centres unmarked) [DC42, (E)-N-(1-(2-Cyano-4-(4,4,4-trifluoro-3-(3,4,5-trichlorophenyl)but-1-en-1-yl)phenyl)-1H-1,2,4-triazol-3-yl)-N-(cyclopropanecarbonyl)cyclopropanecarboxamide] | A (50-100)
O=C(NCc1ccc(Cl)nc1)c1ccc(/C=C/C(c2cc(Cl)c(Cl)c(Cl)c2)C(F)(F)F)cc1Cl (centres unmarked) [AC28] | A (50-100)
Cc1cc(/C=C/C(c2cc(Cl)cc(Cl)c2)C(F)(F)F)cc(C#N)c1-n1cncn1 (centres unmarked) [DC44] | A (50-100)

Structure (SMILES) | BAW Rating
Cc1cc(/C=C/C(c2cc(Cl)c(F)c(Cl)c2)C(F)(F)F)ccc1C(=O)NC1CCOCC1 (centres unmarked) [AC52] | A (50-100)
O=C(NCc1ccc(/C=C/C(c2cc(Cl)c(F)c(Cl)c2)C(F)(F)F)cc1Cl)C1CC1 (centres unmarked) [CC15] | A (50-100)
O=C(NC1CSC1)c1ccc(/C=C/C(c2cc(Cl)c(F)c(Cl)c2)C(F)(F)F)cc1F (centres unmarked) [AC67] | A (50-100)
Cc1cc(/C=C/C(c2cc(Cl)cc(Cl)c2)C(F)(F)F)ccc1C(=O)NCc1ccoc1 (centres unmarked) [AC20] | A (50-100)
FC(F)(F)C(/C=C/c1ccc(-n2cncn2)c(Cl)c1)c1cc(Cl)cc(Cl)c1 (centres unmarked) [DC50] | A (50-100)
O=C(NNc1ccc(/C=C/C(c2cc(Cl)c(Cl)c(Cl)c2)C(F)(F)F)cc1)C1CC1 (centres unmarked) [CC50, (E)-N′-(4-(4,4,4-Trifluoro-3-(3,4,5-trichlorophenyl)but-1-en-1-yl)phenyl)cyclopropanecarbohydrazide] | A (50-100)
CN1CCC(NC(=O)c2ccc(/C=C/C(c3cc(Cl)c(Cl)c(Cl)c3)C(F)(F)F)cc2Br)CC1 (centres unmarked) [AC106, (E)-2-Bromo-N-(1-methylpiperidin-4-yl)-4-(4,4,4-trifluoro-3-(3,4,5-trichlorophenyl)but-1-en-1-yl)benzamide] | A (50-100)
Cc1cc(/C=C/C(c2cc(Cl)c(F)c(Cl)c2)C(F)(F)F)ccc1C(=O)NCC(=O)NCC(F)(F)F (centres unmarked) [AC69] | A (50-100)
O=C(CNC(=O)c1ccc(/C=C/C(c2cc(Cl)c(F)c(Cl)c2)C(F)(F)F)cc1F)NCC(F)(F)F (centres unmarked) [AC68] | A (50-100)
Cc1cc(/C=C/C(c2cc(Cl)cc(Cl)c2)C(F)(F)F)ccc1C(=O)NCc1nnc(C2CC2)o1 (centres unmarked) [AC89, (E)-N-((5-Cyclopropyl-1,3,4-oxadiazol-2-yl)methyl)-4-(3-(3,5-dichlorophenyl)-4,4,4-trifluorobut-1-en-1-yl)-2-methylbenzamide] | A (50-100)
O=C(NC1CCN(C(=O)CC(F)(F)F)CC1)c1ccc(/C=C/C(c2cc(Cl)c(Cl)c(Cl)c2)C(F)(F)F)cc1Br (centres unmarked) [AC104, (E)-2-Bromo-4-(4,4,4-trifluoro-3-(3,4,5-trichlorophenyl)but-1-en-1-yl)-N-(1-(3,3,3-trifluoropropanoyl)piperidin-4-yl)benzamide] | A (50-100)
N#Cc1cc(/C=C/C(c2cc(Cl)c(Cl)c(Cl)c2)C(F)(F)F)ccc1-n1cnc(N)n1 (centres unmarked) [DC41, (E)-2-(3-Amino-1H-1,2,4-triazol-1-yl)-5-(4,4,4-trifluoro-3-(3,4,5-trichlorophenyl)but-1-en-1-yl)benzonitrile] | A (50-100)
O=C(NC1CCN(C2COC2)CC1)c1ccc(/C=C/C(c2cc(Cl)c(Cl)c(Cl)c2)C(F)(F)F)cc1Br (centres unmarked) [AC108, (E)-2-Bromo-N-(1-(oxetan-3-yl)piperidin-4-yl)-4-(4,4,4-trifluoro-3-(3,4,5-trichlorophenyl)but-1-en-1-yl)benzamide] | B (More than 0-Less than 50)
O=C(NCc1ccc(/C=C/C(c2cc(Cl)c(Cl)c(Cl)c2)C(F)(F)F)cc1Br)C1CC1 (centres unmarked) [CC26] | A (50-100)
Cc1cc(/C=C/C(c2cc(Cl)cc(Cl)c2)C(F)(F)F)ccc1C(=O)NCC(=O)NC1CSC1 (centres unmarked) [AC41] | A (50-100)
COc1cc(/C=C/C(c2cc(Cl)c(F)c(Cl)c2)C(F)(F)F)ccc1C(=O)NC1CSC1 (centres unmarked) [AC71] | A (50-100)
CN(C)C(=O)NCc1ccc(/C=C/C(c2cc(Cl)c(Cl)c(Cl)c2)C(F)(F)F)cc1Cl (centres unmarked) [CC36, (E)-3-(2-Chloro-4-(4,4,4-trifluoro-3-(3,4,5-trichlorophenyl)but-1-en-1-yl)benzyl)-1,1-dimethylurea] | A (50-100)
O=C(CC(F)(F)F)NCc1ccc(/C=C/C(c2cc(Cl)c(Cl)c(Cl)c2)C(F)(F)F)cc1F (centres unmarked) [CC27] | A (50-100)
Cc1cc(/C=C/C(c2cc(Cl)c(Cl)c(Cl)c2)C(F)(F)F)ccc1C(=O)NCc1cnc(Cl)s1 (centres unmarked) [AC26] | A (50-100)

Structure (SMILES) | BAW Rating
O=C(NC1CCc2cc(/C=C/C(c3cc(Cl)c(Cl)c(Cl)c3)C(F)(F)F)ccc21)C1CC1 (centres unmarked) [BC6] | A (50-100)
Cc1cc(/C=C/C(c2cc(Cl)cc(Cl)c2)C(F)(F)F)ccc1C(=S)NCc1ccc(Cl)nc1 (centres unmarked) [AC115, (E)-N-((6-Chloropyridin-3-yl)methyl)-4-(3-(3,5-dichlorophenyl)-4,4,4-trifluorobut-1-en-1-yl)-2-methylbenzothioamide] | A (50-100)
O=C(NCc1ccc(/C=C/C(c2cc(Cl)c(Cl)c(Cl)c2)C(F)(F)F)cc1)C1CC1 (centres unmarked) [CC5] | A (50-100)
N#Cc1cc(/C=C/C(c2cc(Cl)c(F)c(Cl)c2)C(F)(F)F)ccc1-n1cncn1 (centres unmarked) [DC35] | A (50-100)
O=C(NCc1ccc(/C=C/C(c2cc(Cl)c(Cl)c(Cl)c2)C(F)(F)F)cc1Cl)N1CCOCC1 (centres unmarked) [CC34] | A (50-100)
O=C(CC(F)(F)F)NCc1ncc(/C=C/C(c2cc(Cl)c(Cl)c(Cl)c2)C(F)(F)F)cc1Cl (centres unmarked) [CC44, (E)-N-((3-Chloro-5-(4,4,4-trifluoro-3-(3,4,5-trichlorophenyl)-but-1-en-1-yl)pyridin-2-yl)methyl)-3,3,3-trifluoropropanamide] | A (50-100)
O=C(CC(F)(F)F)NC1CCc2cc(/C=C/C(c3cc(Cl)c(F)c(Cl)c3)C(F)(F)F)ccc21 (centres unmarked) [BC8] | A (50-100)
O=C(NCCc1ccc(Cl)nc1)c1ccc(/C=C/C(c2cc(Cl)c(Cl)c(Cl)c2)C(F)(F)F)cc1Br (centres unmarked) [AC113] | B (More than 0-Less than 50)
Cc1cc(/C=C/C(c2cc(Cl)cc(Cl)c2)C(F)(F)F)ccc1C(=O)NCc1ncccn1 (centres unmarked) [AC18] | A (50-100)
Fc1cc(/C=C/C(c2cc(Cl)cc(Cl)c2)C(F)(F)F)ccc1-n1cncn1 (centres unmarked) [DC48] | A (50-100)
FC(F)(F)C(/C=C/c1ccc(-n2cncn2)cc1Cl)c1cc(Cl)c(Cl)c(Cl)c1 (centres unmarked) [DC66] | A (50-100)
O=C(NCc1ccc(Cl)nc1)c1ccc(/C=C/C(c2cc(Cl)c(F)c(Cl)c2)C(F)(F)F)cc1F (centres unmarked) [AC65] | A (50-100)
O=C(NCC(=S)NCC(F)(F)F)c1ccc(/C=C/C(c2cc(Cl)c(Cl)c(Cl)c2)C(F)(F)F)cc1Br (centres unmarked) [AC92, (E)-2-Bromo-N-(2-thioxo-2-((2,2,2-trifluoroethyl)amino)ethyl)-4-(4,4,4-trifluoro-3-(3,4,5-trichlorophenyl)but-1-en-1-yl)benzamide] | A (50-100)
CCc1cc(/C=C/C(c2cc(Cl)c(F)c(Cl)c2)C(F)(F)F)ccc1C(=O)NC1CS(=O)(=O)C1 (centres unmarked) [AC86] | A (50-100)
Cc1cc(/C=C/C(c2cc(Cl)c(F)c(Cl)c2)C(F)(F)F)ccc1C(=O)NCc1ccc(Cl)cn1 (centres unmarked) [AC53] | A (50-100)
O=C(NC1CCCc2cc(/C=C/C(c3cc(Cl)c(Cl)c(Cl)c3)C(F)(F)F)ccc21)C1CC1 (centres unmarked) [BC7] | A (50-100)
O=C(NCc1ccc(Cl)nc1)c1ccc(/C=C/C(c2cc(Cl)c(Cl)c(Cl)c2)C(F)(F)F)cc1Br (centres unmarked) [AC31] | A (50-100)
O=C(NC1CS(=O)(=O)C1)c1ccc(/C=C/C(c2cc(Cl)c(Cl)c(Cl)c2)C(F)(F)F)cc1C(F)(F)F (centres unmarked) [AC35] | A (50-100)
